# Laboratory results from USRE37781E1, “Substituted cyclic carbonyls and derivatives thereof useful as retroviral protease inhibitors” (DuPont Pharmaceuticals Company, priority 1991, dated 2002).
# Where two headings read alike, the source gives them in different places.
# Legend:
# [1] = system: HIV-1 (RF) in MT-2 cells; experiment: microbe, parasite or virus in culture; type: cell-based
# Outline: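 HIV-1 laboratory strains (RF, MN, IIIB) grown in H9 cells in RPMI 1640 with 5% FCS; infections in MT-2 cells. Viral RNA quantified by hybridization with biotinylated gag/pol capture probes on streptavidin plates and alkaline phosphatase-conjugated reporter probes; BH10 gag-pol in vitro transcripts serve as RNA standards.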
# [2] = biological target: single-chain tethered dimer of HIV protease (Human immunodeficiency virus 1, UniProt P04585); experiment: biochemical; type: biochemical; design: fused on or other part: A second copy of the same protease unit is joined to the first by a short peptide tether, giving one polypeptide
# [3] = Table 2u (second printing), HPLC method, read-out: K1 (HPLC)
# [4] = Table 2u, HPLC method, read-out: K1 (HPLC)
# [5] = Human immunodeficiency virus 1, MT2, 48 h, Table 2d, HIV RNA assay, read-out: IC90
# [6] = read-out: HPLC K1, Table 2d, HIV protease inhibition, HPLC method
# [7] = Table 2d, HIV protease inhibition, HPLC method, read-out: HPLC K1
# [8] = Human immunodeficiency virus 1, MT2, 48 h, Table 2d, class symbols, read-out: IC90
# [9] = read-out: HPLC K1, Table 2d, class symbols
smiles,measurement,setting,value
COC(=O)c1cccc(CN2C(Cc3ccc(F)cc3)C(O)C(O)C(Cc3ccc(F)cc3)N(Cc3cccc(C(=O)OC)c3)S2(=O)=O)c1 (stereo not drawn) [31A],IC90,[1]; Table 2u,+++ (+++=<10 μg/mL)
same,IC90,[1]; Table 2u (second printing),+++ (+++=<10 μg/mL)
same,Ki,[2]; [3],10 to 1000 nM
same,Ki,[2]; [4],10 to 1000 nM
O=S1(=O)N(Cc2ccccc2)C(Cc2ccccc2)C2OC2C(Cc2ccccc2)N1Cc1ccccc1 (stereo not drawn) [31F],IC90,[1]; Table 2u,++/+ (The ++/+ is used in the cases where an IC90 was determined to be >50 μg/mL)
same,IC90,[1]; Table 2u (second printing),++/+ (The ++/+ is used in the cases where an IC90 was determined to be >50 μg/mL)
same,Ki,[2]; [3],> 1000 nM
same,Ki,[2]; [4],> 1000 nM
O=C(O)c1ccc(CN2C(=O)N(Cc3ccc(CO)cc3)C(Cc3ccccc3)C(O)C(O)C2Cc2ccccc2)cc1 (stereo not drawn) [15XA],IC90,[1]; [5],10 to 100 µg/mL
same,Ki,[2]; [6],< 10 nM
O=C(NCCCCCN1C(=O)N(CCCCCNC(=O)c2ccccc2)C(Cc2ccccc2)C(O)C(O)C1Cc1ccccc1)c1ccccc1 (stereo not drawn) [15EX],IC90,"[1]; Table 2d, HIV RNA assay",++/+ (The ++/+ is used in the cases where an IC90 was determined to be >50 μg/mL)
same,Ki,[2]; [7],10 to 1000 nM
O=C1N(Cc2cccc(-c3cc[nH]n3)c2)C(Cc2ccccc2)C(O)C(O)C(Cc2ccccc2)N1Cc1cccc([N+](=O)[O-])c1 (stereo not drawn) [Example 15CD],IC90,[1]; [5],< 10 µg/mL
same,Ki,[2]; [6],< 10 nM
C=CCN1C(Cc2ccccc2)C(O)C(O)C(Cc2ccccc2)N(CC=C)S1(=O)=O (stereo not drawn) [23E],IC90,[1]; Table 2m,+++ (+++=<10 μg/mL)
same,Ki,"[2]; Table 2m, read-out: HPLC Ki",10 to 1000 nM
O=S1(=O)N(CC2CCOC2)C(Cc2ccccc2)C(O)C(O)C(Cc2ccccc2)N1CC1CCOC1 (stereo not drawn) [23R],IC90,[1]; Table 2m,+++ (+++=<10 μg/mL)
same,Ki,"[2]; Table 2m, read-out: HPLC Ki",10 to 1000 nM
CC1(C)CCC(C)(C)c2cc(CN3C(=O)N(Cc4ccc5c(c4)C(C)(C)CCC5(C)C)C(Cc4ccccc4)C(O)C(O)C3Cc3ccccc3)ccc21 (stereo not drawn) [15EL],IC90,"[1]; Table 2d, HIV RNA assay",++/+ (The ++/+ is used in the cases where an IC90 was determined to be >50 μg/mL)
same,Ki,[2]; [7],> 1000 nM
CCC(O)CN1C(=O)NC(Cc2ccccc2)C(O)C(O)C1Cc1ccccc1 (stereo not drawn) [Example 15VL],IC90,[1]; [8],> 50 µg/mL
same,Ki,[2]; [9],> 1000 nM
CN1CCN(Cc2cccc(C(=O)OCc3ccc(CN4C(=O)N(Cc5ccc(COC(=O)c6cccc(CN7CCN(C)CC7)c6)cc5)[C@H](Cc5ccccc5)[C@H](O)[C@@H](O)[C@H]4Cc4ccccc4)cc3)c2)CC1.Cl.Cl [29Y],IC90,[1]; Table 2s,+++ (+++=<10 μg/mL)
same,Ki,"[2]; Table 2s, read-out: Ki (HPLC)",10 to 1000 nM
NS(=O)(=O)c1cccc(CN2C(=O)N(Cc3cccc(S(N)(=O)=O)c3)C(Cc3ccccc3)C(O)C(O)C2Cc2ccccc2)c1 (stereo not drawn) [15XQ],IC90,[1]; [5],< 10 µg/mL
same,Ki,[2]; [6],< 10 nM
O=C1N(Cc2nccs2)C(Cc2ccccc2)C(O)C(O)C(Cc2ccccc2)N1Cc1nccs1 (stereo not drawn) [Example 13V],IC90,"[1]; Table 2d, class symbols",++ (++=10 to 100 μg/mL)
same,Ki,"[2]; Table 2d, class symbols, read-out: HPLC K1",10 to 1000 nM
N#Cc1cccc(CN2C(=O)N(CCCCCO)C(Cc3ccccc3)C(O)C(O)C2Cc2ccccc2)c1 (stereo not drawn) [Example 15VX],IC90,[1]; [8],< 10 µg/mL
same,Ki,[2]; [9],< 10 nM
NCCCCN1C(=O)N(CCCCN)C(Cc2ccccc2)C(O)C(O)C1Cc1ccccc1 (stereo not drawn) [15FI],IC90,"[1]; Human immunodeficiency virus 1, MT2, 48 h, HIV RNA assay, HIV-1 infected MT-2 cells, Table 2d, read-out: IC90",> 50 µg/mL
same,Ki,"[2]; read-out: HPLC K1, HIV protease inhibition, HPLC method, Table 2d",> 1000 nM
O=C(NCCN1CCOCC1)c1cccc(CN2C(=O)N(Cc3cccc(-c4cc[nH]n4)c3)C(Cc3ccccc3)C(O)C(O)C2Cc2ccccc2)c1 (stereo not drawn) [Example 15BT],IC90,[1]; [5],< 10 µg/mL
same,Ki,[2]; [6],< 10 nM
O=C(CCl)Nc1cccc(CN2C(=O)N(Cc3cccc(NC(=O)CCl)c3)C(Cc3ccccc3)C(O)C(O)C2Cc2ccccc2)c1 (stereo not drawn) [Example 15AA],IC90,[1]; [5],< 10 µg/mL
same,Ki,[2]; [6],< 10 nM
COc1cccc(CC2C(O)C(O)C(Cc3cccc(OC)c3)N(Cc3ccccc3)C(=O)N2Cc2ccccc2)c1 (stereo not drawn) [Example 20W],IC90,[1]; Table 2i,+++ (+++=<10 μg/mL)
same,Ki,"[2]; Table 2i, read-out: HPLC Ki",< 10 nM
O=C1N(Cc2cccc(C=NCCO)c2)C(Cc2ccccc2)C(O)C(O)C(Cc2ccccc2)N1Cc1cccc(C=NCCO)c1 (stereo not drawn) [Example 9J],IC90,[1]; [8],< 10 µg/mL
same,Ki,[2]; [9],10 to 1000 nM
CC(O)c1cccc(CN2C(=O)N(Cc3cccc(C(C)O)c3)C(Cc3ccccc3)C(O)C(O)C2Cc2ccccc2)c1 (stereo not drawn) [Example 9H],IC90,[1]; [8],< 10 µg/mL
same,Ki,[2]; [9],10 to 1000 nM
O=C1N(CCCCCO)C(Cc2ccccc2)C(O)C(O)C(Cc2ccccc2)N1Cc1cccc(O)c1 (stereo not drawn) [Example 15VR],IC90,[1]; [8],< 10 µg/mL
same,Ki,[2]; [9],< 10 nM
O=C(NCCCCCN1C(=O)N(CCCCCNC(=O)c2cccc(C(F)(F)F)c2)C(Cc2ccccc2)C(O)C(O)C1Cc1ccccc1)c1cccc(C(F)(F)F)c1 (stereo not drawn) [15FJ],IC90,"[1]; HIV RNA assay, HIV-1 infected MT-2 cells, Table 2d",++/+ (The ++/+ is used in the cases where an IC90 was determined to be >50 μg/mL)
same,Ki,"[2]; HIV protease inhibition, HPLC method, Table 2d, read-out: HPLC K1",10 to 1000 nM
CNC(=O)OCCCCCN1C(=O)N(CCCCCOC(=O)NC)C(Cc2ccccc2)C(O)C(O)C1Cc1ccccc1 (stereo not drawn) [15EK],IC90,"[1]; Table 2d, HIV RNA assay",++ (++=10 to 100 μg/mL)
same,Ki,[2]; [7],10 to 1000 nM
